Source: publication PMC6309729 (Biochemistry, 2011)

How the values were obtained:
Assay type in all cases: biochemical
cpSRP54•cpFtsY complex = target: T1, cpSRP54•cpFtsY complex (Arabidopsis thaliana, UniProt O80842+P37107); experiment: reciprocally stimulated multiple-turnover GTPase assay; settings: 25 °C, pH 7.5, 100 μM GTP, 100 nM cpSRP54, varied cpFtsY
T1 sequence (P37107 76-564): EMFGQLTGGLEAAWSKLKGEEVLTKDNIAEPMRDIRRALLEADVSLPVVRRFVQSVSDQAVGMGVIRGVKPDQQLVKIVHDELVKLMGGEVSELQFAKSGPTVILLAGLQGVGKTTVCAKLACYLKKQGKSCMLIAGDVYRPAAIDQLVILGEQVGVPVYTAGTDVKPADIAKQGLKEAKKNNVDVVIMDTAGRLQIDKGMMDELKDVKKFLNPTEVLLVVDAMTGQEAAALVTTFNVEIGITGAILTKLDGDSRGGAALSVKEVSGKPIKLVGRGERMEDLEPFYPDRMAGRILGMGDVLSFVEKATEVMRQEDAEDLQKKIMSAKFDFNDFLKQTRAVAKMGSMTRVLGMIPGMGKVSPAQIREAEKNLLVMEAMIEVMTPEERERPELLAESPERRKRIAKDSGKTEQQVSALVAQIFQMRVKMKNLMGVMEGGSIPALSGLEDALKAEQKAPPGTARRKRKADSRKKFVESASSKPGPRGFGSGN
T1 sequence (O80842 41-366): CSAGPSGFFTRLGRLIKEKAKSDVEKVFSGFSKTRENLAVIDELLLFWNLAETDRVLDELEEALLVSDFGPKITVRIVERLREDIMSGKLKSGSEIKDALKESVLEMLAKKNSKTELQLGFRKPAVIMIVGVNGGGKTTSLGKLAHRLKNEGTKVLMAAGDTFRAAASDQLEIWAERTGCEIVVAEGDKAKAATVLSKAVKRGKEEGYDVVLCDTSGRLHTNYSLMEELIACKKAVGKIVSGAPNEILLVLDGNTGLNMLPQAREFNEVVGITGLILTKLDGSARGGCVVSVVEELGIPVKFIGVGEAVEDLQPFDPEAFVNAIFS

cpSRP54 = target: T2, cpSRP54 (Arabidopsis thaliana, UniProt P37107); experiment: basal GTP binding / GTPase assay; settings: 25 °C, pH 7.5, Mg(OAc)2; cpSRP54 alone
T2 sequence (P37107 76-564): T1 sequence (P37107 76-564)

cpFtsY = target: T3, cpFtsY (Arabidopsis thaliana, UniProt O80842); experiment: basal GTP binding / GTPase assay; settings: 25 °C, pH 7.5, Mg(OAc)2; cpFtsY alone
T3 sequence (O80842 41-366): T1 sequence (O80842 41-366)

Nc1nc2c(ncn2[C@@H]2O[C@H](COP(=O)(O)OP(=O)(O)OP(=O)(O)O)[C@@H](O)[C@H]2O)c(=O)[nH]1 [GTP]
reciprocally stimulated multiple-turnover GTPase assay (cpSRP54•cpFtsY complex): reciprocally stimulated GTPase reaction between cpFtsY and cpSRP
basal GTP binding / GTPase assay (cpSRP54): basal GTP binding and hydrolysis activity (Tables S3 and S4 of Supporting Information, respectively)
basal GTP binding / GTPase assay (cpFtsY): basal GTP binding and hydrolysis activity (Tables S3 and S4 of Supporting Information, respectively)
